Reference: the NIST ThermoML archive (doi:10.1021/je400250u)

Legend:
[1] = xn = mol fraction of the nth substance listed; settings: 100 kPa, Liquid; for viscosity: Capillary tube (Ostwald / Ubbelohde) method; for mass density: Vibrating tube method
[2] = refractive index (Na D-line) (dimensionless); xn = mol fraction of the nth substance listed; settings: 100 kPa, Liquid, Standard Abbe refractometry

C1CC[C@H]2CCCC[C@@H]2C1 [trans-decahydronaphthalene] + CCCCCCCCCCC
Settings	mass density, [1] [kg/m3]	refractive index, [2]	viscosity, [1] [mPa·s]
293.15 K, x1 = 0.1041	751.02	–	1.214
293.15 K, x1 = 0.2052	761.89	–	1.258
293.15 K, x1 = 0.3027	772.86	–	1.315
293.15 K, x1 = 0.3999	784.34	–	1.369
293.15 K, x1 = 0.4997	796.76	–	1.444
293.15 K, x1 = 0.5991	809.74	–	1.529
293.15 K, x1 = 0.6991	823.47	–	1.625
293.15 K, x1 = 0.8019	838.4	–	1.752
293.15 K, x1 = 0.8992	853.35	–	1.899
293.15 K, x1 = 1	869.78	–	2.112
298.15 K, x1 = 0.1041	747.37	1.4188	1.12
298.15 K, x1 = 0.2052	758.22	1.423	1.159
298.15 K, x1 = 0.3027	769.19	1.4272	1.212
298.15 K, x1 = 0.3999	780.66	1.4319	1.26
298.15 K, x1 = 0.4997	793.09	1.4367	1.326
298.15 K, x1 = 0.5991	806.06	1.4421	1.406
298.15 K, x1 = 0.6991	819.79	1.4476	1.492
298.15 K, x1 = 0.8019	834.72	1.4535	1.606
298.15 K, x1 = 0.8992	849.65	1.4594	1.741
298.15 K, x1 = 1	866.07	1.4662	1.925
303.15 K, x1 = 0.1041	743.67	–	1.037
303.15 K, x1 = 0.2052	754.53	–	1.073
303.15 K, x1 = 0.3027	765.5	–	1.121
303.15 K, x1 = 0.3999	776.97	–	1.165
303.15 K, x1 = 0.4997	789.4	–	1.222
303.15 K, x1 = 0.5991	802.37	–	1.296
303.15 K, x1 = 0.6991	816.09	–	1.376
303.15 K, x1 = 0.8019	831.02	–	1.478
303.15 K, x1 = 0.8992	845.94	–	1.597
303.15 K, x1 = 1	862.34	–	1.769
308.15 K, x1 = 0.1041	739.97	1.4143	0.965
308.15 K, x1 = 0.2052	750.83	1.419	0.996
308.15 K, x1 = 0.3027	761.8	1.4232	1.041
308.15 K, x1 = 0.3999	773.28	1.428	1.081
308.15 K, x1 = 0.4997	785.7	1.4331	1.136
308.15 K, x1 = 0.5991	798.67	1.4378	1.201
308.15 K, x1 = 0.6991	812.39	1.4434	1.274
308.15 K, x1 = 0.8019	827.31	1.4496	1.366
308.15 K, x1 = 0.8992	842.22	1.4559	1.473
308.15 K, x1 = 1	858.61	1.4618	1.628
313.15 K, x1 = 0.1041	736.25	–	0.9
313.15 K, x1 = 0.2052	747.11	–	0.929
313.15 K, x1 = 0.3027	758.09	–	0.972
313.15 K, x1 = 0.3999	769.57	–	1.006
313.15 K, x1 = 0.4997	781.99	–	1.058
313.15 K, x1 = 0.5991	794.96	–	1.117
313.15 K, x1 = 0.6991	808.67	–	1.182
313.15 K, x1 = 0.8019	823.59	–	1.267
313.15 K, x1 = 0.8992	838.5	–	1.364
313.15 K, x1 = 1	854.88	–	1.505
318.15 K, x1 = 0.1041	732.53	1.4099	0.842
318.15 K, x1 = 0.2052	743.39	1.4146	0.869
318.15 K, x1 = 0.3027	754.37	1.4191	0.908
318.15 K, x1 = 0.3999	765.85	1.4236	0.94
318.15 K, x1 = 0.4997	778.27	1.4281	0.988
318.15 K, x1 = 0.5991	791.24	1.4332	1.042
318.15 K, x1 = 0.6991	804.95	1.439	1.101
318.15 K, x1 = 0.8019	819.87	1.4452	1.18
318.15 K, x1 = 0.8992	834.77	1.4515	1.267
318.15 K, x1 = 1	851.14	1.4581	1.394
323.15 K, x1 = 0.1041	728.79	–	0.789
323.15 K, x1 = 0.2052	739.66	–	0.815
323.15 K, x1 = 0.3027	750.64	–	0.852
323.15 K, x1 = 0.3999	762.12	–	0.881
323.15 K, x1 = 0.4997	774.54	–	0.924
323.15 K, x1 = 0.5991	787.51	–	0.975
323.15 K, x1 = 0.6991	801.22	–	1.028
323.15 K, x1 = 0.8019	816.14	–	1.1
323.15 K, x1 = 0.8992	831.03	–	1.18
323.15 K, x1 = 1	847.4	–	1.295
